Measured values taken from patent US6391280B1, “J chain polypeptide targeting molecule linked to an imaging agent” (Epicyte Pharmaceutical, Inc., priority 1997, dated 2002).
Marks after values point to notes of the source that are not given here.

Test: Molar Relaxivities 1/T1 of Paramagnetic Compounds
Format: physicochemical
Conditions: in water at 10.7 MHz, 37° C. (values marked *)

Row | SMILES | Relaxation rate, molar relaxivity 1/T1
1 | O=C([O-])CN(CCN(CC(=O)[O-])CC(=O)O)CCN(CC(=O)[O-])CC(=O)O.[Gd+3] [GDDTP A] | 5.05* (mMs)^−1
2 | O=S(=O)([O-])c1ccc(-c2c3nc(c(-c4ccc(S(=O)(=O)[O-])cc4)c4ccc([n-]4)c(-c4ccc(S(=O)(=O)[O-])cc4)c4ccc([n-]4)c(-c4ccc(S(=O)(=O)[O-])cc4)c4nc2C=C4)C=C3)cc1.[Mn+3] [MnTPPS4] | 10.39* (mMs)^−1
3 | [Cl][Gd]([Cl])[Cl] [GdCl] | 14.67* (mMs)^−1
4 | [Cl][Mn][Cl] [MnCl2] | 9.32* (mMs)^−1
